The values that follow come from patent publication US7935335B2, “Strains belonging to the genus Paenibacillus and method of controlling plant disease by using these strains or culture thereof” (Kaken Pharmaceutical Co., Ltd., priority 2004, dated 2011).

Assay type in all cases: in vivo
For experiment [1], the system named is cucumber bacterial blight bacterium (Pseudomonas syringae pv. lachrymans). Kind of experiment: Test Example 3: control effect of purified spores on cucumber bacterial blight. The settings on record: cucumber second true leaf; 20 ppm.
For experiment [2] the test system is unchanged. As to the kind of experiment: Evaluation Example 3: control effect on cucumber bacterial blight, plant foot drench. The settings on record: 20 ppm. On the procedure:
Each of plastic pots was filled with horticultural compost and sown with cucumber (cultivar: Suyo), followed by growing in a greenhouse for 20 days. The cucumber young seedling having a developed second true leaf was subjected to plant foot drench treatment with the formulation obtained in the above-mentioned preparation example, in a proportion of 5 mL per seedling. After the pots were allowed to stand in a glass house at 25° C. for 3 days, the plants were inoculated with a suspension (1×10^8 CFU/mL) of cucumber bacterial blight bacterium (Pseudomonas syringae pv. lachrymans) in distilled water by spraying. The pots were allowed to stand in a dark moist chamber at 25° C. for 24 hours and then in a glass house at 25° C. for 7 days to cause the disease. Lesions in each leaf were counted and the protective value was calculated from the number of the lesions by the following equation to make a comparison with respect to control effect. Protective value={1−(number of lesions on treated plot/number of lesions on untreated plot)}×100

For experiment [3], the system named is Fusarium wilt of cucumber fungus (Fusarium oxysporum f. sp. cucumerium). Kind of experiment: Evaluation Example 5: control effect on Fusarium wilt of cucumber. To be noted: 20 ppm, Spray. On the procedure: Each of plastic vats was filled with horticultural compost and sown with cucumber (cultivar: Sagamihanjiro), followed by growing in a greenhouse for 12 days. The cucumber young seedling having a developed cotyledon was subjected to foliar spray treatment with the formulation obtained in the above-mentioned preparation example, in a proportion of 1 mL per seedling. After the vats were allowed to stand in a glass house at 25° C. for 3 days, the plant foot of each plant was inoculated with 2 mL of a suspension (3×10^7 spores/mL) of conidia of Fusarium wilt of cucumber fungus (Fusarium oxysporum f. sp. cucumerium) in distilled water by drench. The vats were allowed to stand in a glass house at 25° C. for 14 days to cause the disease. The disease severity was calculated from the degree of infection and then the protective value was calculated from the disease severity values by the following equation to make a comparison with respect to control effect. […]

For the compound `CSC(=O)c1cccc2nnsc12` [Acibenzolar-S-methyl, S-methyl 1,2,3-benzothiazole-7-carboxylate], the “Number of lesions per leaf” value was found to be 0 b in experiment [1] and 137.8 b in experiment [2]. In addition, the results for the Protective value in experiment [1], in experiment [2] and in experiment [3] were 100, 78.8 and 75.6, respectively. In experiment [3], the Disease severity was 9.4.
